Two molecules from patent US20200031825A1, “HETEROAROMATIC-FUSED IMIDAZOLYL AMIDES, COMPOSITIONS AND USES THEREOF AS STING AGONISTS” (Trillium Therapeutics Inc., priority 2018, published 2020) can be followed below.

The target of one series is hSTING-wt (Homo sapiens, UniProt Q86WV6). As to the kind of experiment: Cellular Functional Assay I: ISRE-SEAP reporter in HEK-293T-Dual Null cells transfected with hSTING-wt. It is filed as cell-based. The following applies: for EC50: HEK-293T-Dual Null, hSTING-wt.
In another series the target is hSTING-H232 (Homo sapiens, UniProt Q86WV6). Put plainly: Cellular Functional Assay I: ISRE-SEAP reporter in HEK-293T-Dual Null cells transfected with hSTING-H232. The following applies: for EC50: HEK-293T-Dual Null, hSTING-H232. Type of series: cell-based.
Another series deals with hSTING-HAQ (Homo sapiens, UniProt Q86WV6, G230A/H232R/R293Q/R71H). Put plainly: Cellular Functional Assay I: ISRE-SEAP reporter in HEK-293T-Dual Null cells transfected with hSTING-HAQ. It is filed as cell-based. The following applies: for EC50: HEK-293T-Dual Null, hSTING-HAQ.
A further series deals with T1, hSTING-AQ (Homo sapiens, UniProt Q86WV6, G230A/R293Q).
T1 construct: expressed in transfected cells
As to the kind of experiment: Cellular Functional Assay I: ISRE-SEAP reporter, hSTING-AQ allele. It is filed as cell-based.

The target in the next series is T2, hSTING-Q (Homo sapiens, UniProt Q86WV6, R293Q).
T2 construct: expressed in transfected cells
Put plainly: Cellular Functional Assay I: ISRE-SEAP reporter, hSTING-Q allele. It is filed as cell-based.

In a further series the target is T3, mSTING-wt (Mus musculus, UniProt Q3TBT3).
T3 sequence (Q3TBT3 1-378): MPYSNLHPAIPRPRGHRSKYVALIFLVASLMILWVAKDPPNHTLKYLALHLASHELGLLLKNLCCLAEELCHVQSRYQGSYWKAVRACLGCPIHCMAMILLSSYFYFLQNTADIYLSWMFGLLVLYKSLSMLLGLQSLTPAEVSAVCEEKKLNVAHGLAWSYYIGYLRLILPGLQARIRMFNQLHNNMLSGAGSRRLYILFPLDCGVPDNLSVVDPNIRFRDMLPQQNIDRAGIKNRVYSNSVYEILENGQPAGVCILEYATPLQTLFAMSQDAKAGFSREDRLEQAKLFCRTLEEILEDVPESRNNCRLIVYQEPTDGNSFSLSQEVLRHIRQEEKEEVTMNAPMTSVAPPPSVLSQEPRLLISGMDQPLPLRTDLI
Put plainly: Cellular Functional Assay I: ISRE-SEAP reporter in HEK-293T-Dual Null cells transfected with mouse STING. It is filed as cell-based. To be noted: SEAP reporter; for EC50: HEK-293T-Dual Null, mSTING-wt, read-out: EC50 mSTING-wt.

Series [1] relates to human monocyte-derived macrophages (h-MDMs). As to the kind of experiment: Cellular Functional Assay II: secreted IFN-β from human monocyte-derived macrophages. It is filed as cell-based. To be noted: h-MDM. Here is the method: (§1) Activation of STING in primary cells was determined by measuring levels of secreted IFN-β from human monocyte-derived macrophages (h-MDMs)/dendritic cells (h-DCs) and/or mouse dendritic cells (m-DCs) after treatment with A.
(§2) Human CD14+ cells were first isolated from human peripheral blood mononuclear cells (PBMCs) with Stemcell Easysep Monocyte Isolation™ kit. Human CD14+ cells were kept in conditioned media for 7-12 days to generate h-MDMs and h-DCs before use. After harvesting from C57BL/6 mouse femurs, bone marrow cells were culture in conditioned media for 7 days to generate m-DCs before use.
(§3) The Culture conditions for the various types of cells whereas noted in Table 2:
(§4) 0.5×10^6 cells in 50 ul buffer (50 mM HEPES, pH7.0; 100 mM KCl; 3 mM MgCl2, 0.1 mM DTT; 85 mM Sucrose; 0.2% BSA, 1 mM ATP) in 96-well round bottom plate. Compound (formulated in DMSO) or DMSO (control) were added into each well and the plate incubate at 37° C. for 30 minutes. Cells were washed twice with 100 uL of fresh media and incubated at 37° C. for an additional 6 hours. After 6 hour of incubation, the supernatant was collected and a Cytometry Bead Assay™ (CBA, BioLegend) was used to measure […] levels.

Series [2] has as its system human dendritic cells (h-DCs). As to the kind of experiment: Cellular Functional Assay II: secreted IFN-β from human dendritic cells. It is filed as cell-based. The following applies: h-DC. Here is the method:
as §1, §2, §3, §4

For series [3], the system named is mouse dendritic cells (m-DCs). Put plainly: Cellular Functional Assay II: secreted IFN-β from mouse dendritic cells. It is filed as cell-based. To be noted: m-DC. Here is the method: as §1, §2, §3, §4
The subject of series [4] is murine A20 model of B cell lymphoma. Put plainly: In vivo syngeneic A20 mouse tumor model. The following applies: Balb/c mice. The protocol:
The in vivo efficacy of exemplary compound I(c) was evaluated in a murine A20 model of B cell lymphoma. A20 cells were maintained in RPMI1640/10% FBS. Approximately 4×10^6 A20 cells were injected subcutaneously in 0.1 mL PBS into the right flanks of immunocompetent female Balb/c mice. Tumors were permitted to grow for six days after initial inoculation before the animals were segregated into treatment group. Study groups were treated with 25 μg of B formulated in an appropriate vehicle. Exemplary compound B was dosed intratumorally at the proximal tumor (right flank) on days 6, 8, and 11 of the study. Only animals in good health were used for dosing. Since the effects of the test article on the animals were not known, animals were closely observed for 1 h following dosing and at each tumor measurement time point over the course of the study. Any adverse reactions to the administration of the test material were noted and tabulated. […] Systemic toxicity of the treatments was evaluated by body weight change. Tumor volume was measured every 2 days using standard caliper measurement techniques.

Setting [5] is: A20 tumor, 25 μg intratumorally on days 6, 8 and 11.

Chain of hSTING-H232 (Q86WV6 whole entry): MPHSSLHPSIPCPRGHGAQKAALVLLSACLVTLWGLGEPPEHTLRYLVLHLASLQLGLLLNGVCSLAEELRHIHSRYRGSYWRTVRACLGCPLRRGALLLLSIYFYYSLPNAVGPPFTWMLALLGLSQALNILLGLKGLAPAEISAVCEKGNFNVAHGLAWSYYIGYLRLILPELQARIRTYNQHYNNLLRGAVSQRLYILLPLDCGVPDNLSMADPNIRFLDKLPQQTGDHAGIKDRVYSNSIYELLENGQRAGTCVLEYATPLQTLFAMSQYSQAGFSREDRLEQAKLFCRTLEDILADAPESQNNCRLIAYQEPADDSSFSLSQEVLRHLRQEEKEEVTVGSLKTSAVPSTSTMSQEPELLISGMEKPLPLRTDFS
Chain of hSTING-HAQ (Q86WV6 whole entry R71H/G230A/H232R/R293Q): as the sequence (Q86WV6 whole entry) above, with R71H, G230A, H232R, R293Q counted along it
Chain of hSTING-wt (Q86WV6 whole entry H232R): as the sequence (Q86WV6 whole entry) above, with H232R counted along it
T2 sequence (Q86WV6 whole entry R293Q): as the sequence (Q86WV6 whole entry) above, with R293Q counted along it
T1 sequence (Q86WV6 whole entry G230A/H232R/R293Q): as the sequence (Q86WV6 whole entry) above, with G230A, H232R, R293Q counted along it

`CCn1nc(C)cc1C(=O)Nc1nc2cc(C(N)=O)cnc2n1C/C=C/Cn1c(NC(=O)c2cc(C)nn2CC)nc2cc(C(N)=O)cc(OC)c21` [Compound A, 3-[(E)-4-[5-carbamoyl-2-[(2-ethyl-5-methyl-pyrazole-3-carbonyl)amino]-7-methoxy-benzimidazol-1-yl]but-2-enyl]-2-[(2-ethyl-5-methyl-pyrazole-3-carbonyl)amino]imidazo[4,5-b]pyridine-6-carboxamide]: the concentration for a half-maximal effect (EC50) (as a rule, the concentration giving half of the maximal effect) at hSTING-wt was below 1 nM; at hSTING-H232, below 1 nM; on hSTING-HAQ, 1 to 500 nM; at hSTING-AQ it was 1 to 500 nM; on hSTING-Q, 1 to 500 nM; at mSTING-wt, below 1 nM. The IFN-β level in series [1] (0.1 uM) is >1,000 pg/ml; in series [1] (1 uM), >1,000 pg/ml; in series [1] (10 uM) it was >1,000 pg/ml; in series [2] (0.1 uM), >5,000 pg/ml; in series [2] (10 uM) it was >15,000 pg/ml; in series [3] (0.1 uM), above 100 pg/mL. For the same molecule, the IFN-β level is given as >10,000 pg/ml in [3] (1 uM) and >50,000 pg/ml in series [3] (10 uM).

As for `CCn1nc(C)cc1C(=O)Nc1nc2cc(C(N)=O)cnc2n1C/C=C/Cn1c(NC(=O)c2cc(C)nn2CC)nc2cc(C(N)=O)cc(C)c21.Cl.Cl.Cl.Cl` [Compound B, 3-[(E)-4-[5-carbamoyl-2-[(2-ethyl-5-methyl-pyrazole-3-carbonyl)amino]-7-methyl-benzimidazol-1-yl]but-2-enyl]-2-[(2-ethyl-5-methyl-pyrazole-3-carbonyl)amino]imidazo[4,5-b]pyridine-6-carboxamide Tetrahydrochloride], the “EC50 level, human STING WT” value at hSTING-wt was “pM or nM level”. The concentration for a half-maximal effect (EC50) at hSTING-wt is below 1 nM; at hSTING-H232, below 1 nM; at hSTING-HAQ, 1 to 500 nM; at hSTING-AQ, 1 to 500 nM; on hSTING-Q it was 1 to 500 nM; at mSTING-wt, 1 to 500 nM. Also, on hSTING-H232, the “EC50 level, human STING REF (also called H232)” value is recorded as “pM or nM level”. Moreover, the “EC50 level, human STING HAQ” value on hSTING-HAQ is listed as “pM or nM level”. The “EC50 level, mouse STING” value on mSTING-wt was “pM or nM level”. The IFN-β level in [2] (0.1 uM) is above 800 pg/mL; in [2] (1 uM), >1,000 pg/ml; in [2] (10 uM), >1,000 pg/ml; in series [3] (10 uM) it was >60,000 pg/ml. In series [4] (25 μg dose group), the “dose related toxicity as measured by body weight loss” value is on record as “no dose related toxicity”. In addition, the “animals with complete tumor regression” value in [4] (setting [5]) is recorded as 80%. Besides, the “tumoricidal effect at the injected tumor” value in series [4] (setting [5]) is “significant tumoricidal properties”.
